Measurements as given in patent US6864285B1, “Covalent derivatives of alkanolamides of monocarboxylic and dicarboxylic acids functionally active on the CB2 cannabinoid receptor” (Innovet Italia S.r.l., priority 1999, dated 2005).
Converted amounts (≈) assume the structure as drawn. Read-outs that look alike come from different tables or passages of the source.

Assays:
CB2 receptor [1] = target: T1, CB2 receptor (Rattus norvegicus, UniProt Q9QZN9); experiment: Binding of [3H]WIN55,212-2 to membranes of RBL-2H3+ cells; conditions: cell membranes, 300 pM ligand, 90' at 30° C.; read-out: Ki CB2 receptor RBL-2H3 + cells Lig. [3H]WIN55, 212-2
T1 construct: endogenous in cells; host or cells: rat RBL-2H3+ leukemic basophilic cells
T1 sequence (Q9QZN9 1-360): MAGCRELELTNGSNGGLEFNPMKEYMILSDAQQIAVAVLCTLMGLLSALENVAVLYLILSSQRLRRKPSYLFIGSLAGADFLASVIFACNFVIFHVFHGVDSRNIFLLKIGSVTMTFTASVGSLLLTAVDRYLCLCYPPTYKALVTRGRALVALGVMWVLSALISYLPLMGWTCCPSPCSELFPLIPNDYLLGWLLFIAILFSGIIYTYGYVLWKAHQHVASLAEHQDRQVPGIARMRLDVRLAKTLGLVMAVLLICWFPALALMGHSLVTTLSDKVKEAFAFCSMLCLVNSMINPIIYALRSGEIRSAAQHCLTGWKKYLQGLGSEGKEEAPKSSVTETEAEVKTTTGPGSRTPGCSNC
Description: (§1) Effect of alkanolamide molecules on the binding of the synthetic ligands of the CB2 and CB1 cannabinoid receptors, respectively.
(§2) Rat RBL-2H3+ leukemic basophilic cells, which selectively express the cannabinoid CB2 receptor, and mouse N18TG2 neuroblastoma cells which selectively express the CB1 cannabinoid receptor were used. The cells were cultivated as described above (Facci L. et al. (1995) Proc. Natl: Acad: Sci. U.S.A. 92:: 3376-3380; Bisogno T. et al. 1997 J. Biol. Chem., 272: 3315-3323). WIN 55,212.2 was used as the selectively agonist synthetic ligand for the CB2 receptor.
HU-210 was used as the selective […] for the CB2 receptor.
(§3) [^3H]SR141716A (55 Ci/mmol) was supplied by Amersham; [^3H]WIN55,212-2 (43 Ci/mmol) was supplied by NEN. The binding tests were performed with membranes of the cells resuspended in 50 mMol Tris pH 7.0 buffer; 2.5 mMol MgCl2, 0.8 mMol EDTA; 0.05% bovine serum albumin (BSA); 0.01% ethanol, in the presence of 100 μM of phenyl-methyl-sulphonyl fluoride (PMSF-Sigma), with the use, of 300 pM of [^3H]SR141716A and of [^3H]WIN55,212-2, respectively, as the ligand.
(§4) The membranes were incubated for 90′ at 30° C. and filtered on glass microfibre filters (GFC-Whatman) and the radioactivity was detected by liquid scintillation. The specific binding was calculated with the use of either 10 μM SR141716A or 10 μM HU-210.
(§5) The Ki values were calculated by Chang-Prusoff's equation and expressed as concentration μM.

[2] = Lipid/water partition parameter RM from thin-film chromatography on silica gel; format: physicochemical; conditions: for ΔRM solvent 1 / RM solvent 1 / RF solvent 1: Solvent 1: 100% ethyl acetate; for ΔRM solvent 1 / ΔRM solvent 2: RM of derivative minus RM of corresponding alkanolamide; for RM solvent 1 / RM solvent 2: RM=log (1/Rf−1); for RF solvent 1 / RF solvent 2: silica gel; for ΔRM solvent 2 / RM solvent 2 / RF solvent 2: Solvent 2: heptane:isopropanol:ethyl acetate:H2O 40:20:50:2
Description: The chemical and physical characteristics of the derivatives according to the invention were evaluated by quantitative measurement of the lipid/water partition parameter.
A useful parameter for evaluating the properties of a compound in relation to its possible absorption is in fact constituted by the coefficient of partition between the lipid phase and the aqueous phase, which is considered to be an expression of its lipophilicity and its degree of hydrophilicity. […] For the purpose of evaluating the characteristics of the derivatives of the invention, the partition parameter RM between the lipid and the aqueous phase, extrapolated from thin-film partition chromatography, was calculated; this parameter is commonly used to evaluate the lipophilic characteristics of compounds (Tomlinson E. J. Chromatogr. 1975, 113, 1) and is commonly used, for example, for local anaesthetics, in which a correlation has been shown between this parameter and biological activity (Bachrata M. et al. J. Chromatogr. 1979, 171, 29-36).
The partition parameter RM between the lipid phase and the aqueous phase was calculated both for the derivatives and for the non-substituted alkanolamides, from the Rf value obtained by thin-film chromatography on silica gel (particles of […], mean porosity 60 Å, thickness 0.25 mm on glass plate) in accordance with the formula: RM=log (1/Rf−1) and the ΔRM was obtained from the difference between the RM coefficients of the derivative and of the corresponding alkanolamide.

CB2 receptor [3] = target: T1, CB2 receptor; experiment: Stimulation of cyclic AMP (cAMP) by forskolin in RBL-2H3+ cells; format: cell-based; conditions: 1 μM forskolin
Description: Effect of alkanolamide molecules on the stimulation of cyclic AMP (cAMP) by forskolin.
The tests were performed with the aim of checking whether the binding of the molecules of the present invention to the CB2 receptor has functional significance.
It is in fact known that the function activation of the CB2 receptor brings about, at intracellular level, inhibition of the enzymatic activity of adenylate cyclase and a reduction in the levels of the second-messenger cAMP, resulting in an increase in the conductance of the channels to potassium and an inhibition of proteic phosphorylation (Childers S. R. et al. Biochem. Parmacol. 1996, 52: 819-827).
The dosages of cAMP were performed on RBL-2H3+ cells flowing together in Petri dishes with six wells (Falcon); the cells were stimulated for 10′ at 37° C. with 1 μM of forskolin (Fluka) in 400 μl of medium without serum, containing 20 mM HEPES, 0.1 mg/ml BSA and 0.1 mM 1-methyl-3-isobutyl xanthine (Sigma) and either ethanol or alkanolamide molecules with or without the addition of HU-210. After incubation, the cells were extracted and the levels of cAMP were evaluated with a suitable Amersham kit in accordance with the producer's method. The data were expressed in IC50 μM.

CB1 receptor = target: T2, CB1 receptor (Mus musculus, UniProt P47746); experiment: Binding of [3H]SR141716A to membranes of N18TG2 cells; conditions: cell membranes, 300 pM ligand, 90' at 30° C.; read-out: Ki CB1 Receptor N18TG2 cells Lig. [3H]SR141716A
T2 construct: endogenous in cells; host or cells: mouse N18TG2 neuroblastoma cells
T2 sequence (P47746 whole entry): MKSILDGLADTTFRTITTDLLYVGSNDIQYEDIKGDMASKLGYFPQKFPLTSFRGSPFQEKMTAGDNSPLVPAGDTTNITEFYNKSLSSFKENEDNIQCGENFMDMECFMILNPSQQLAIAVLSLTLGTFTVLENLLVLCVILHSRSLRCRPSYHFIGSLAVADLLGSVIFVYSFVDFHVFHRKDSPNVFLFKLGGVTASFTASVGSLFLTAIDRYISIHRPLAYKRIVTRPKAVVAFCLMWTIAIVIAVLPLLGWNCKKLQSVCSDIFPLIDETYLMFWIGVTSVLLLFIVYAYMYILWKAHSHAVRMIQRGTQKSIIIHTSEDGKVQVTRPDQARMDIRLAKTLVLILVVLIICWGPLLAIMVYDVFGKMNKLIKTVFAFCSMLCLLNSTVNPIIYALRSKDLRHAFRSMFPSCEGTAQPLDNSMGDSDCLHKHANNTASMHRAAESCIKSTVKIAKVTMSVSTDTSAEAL
Description: as §1, §2
SR141716A was used as the selective antagonist for the CB1 receptor.
as §3, §4, §5

[4] = Solubility in water and in organic solvents (chemical and physical characteristics); conditions: for solubility in water: in words
physchem = conditions: organic solvent or mixture
[5] = 10' at 37° C., read-out: IC50 on forskolin-stimulated cAMP
[6] = + HU-210 (0.5 μM), read-out: IC50 on forskolin-stimulated cAMP with HU-210

## N,N^1-bis[2-(ethoxycarbonyl)oxyethyl] nonandiamide [Example 4]
CB2 receptor [1]
  Ki: 0.002 ± 0.0009 µM
[2]
  ΔRM solvent 1: −0.866
  RM solvent 1: −0.477
  RF solvent 1: 0.75
  ΔRM solvent 2: −0.723
  RM solvent 2: −0.035
  RF solvent 2: 0.52
CB2 receptor [3]; [5]
  IC50: 1.8 µM
CB2 receptor [3]; [6]
  IC50: > 20 µM
CB1 receptor
  Ki: > 15 µM
[4]; ethanol
  solubility in organic solvents: ethanol: 10 mg/ml in ethanol,
[4]
  solubility in water: slightly soluble

## CCCCCCCCCCCCCCCC(=O)NCCOC(=O)NCC(=O)OCC [Example 6, N-[2-[(ethoxycarbonylmethyl)aminocarbonyl]oxyethyl] hexadecanamide]
CB2 receptor [1]
  Ki: 0.001 ± 0.0008 µM
[2]
  ΔRM solvent 1: −0.612
  RM solvent 1: 0.176
  RF solvent 1: 0.40
  ΔRM solvent 2: −0.175
  RM solvent 2: −0.140
  RF solvent 2: 0.58
physchem; ethanol
  solubility: 10 mg/mL (≈ 23.3 mM)
physchem; n-octanol
  solubility: 10 mg/mL (≈ 23.3 mM)
CB2 receptor [3]; [5]
  IC50: 1.9 µM
CB2 receptor [3]; [6]
  IC50: > 20 µM
CB1 receptor
  Ki: > 15 µM
[4]
  solubility in water: slightly soluble
